# Test results as given in publication PMC7312786 (Biochemistry, 2018).
# Molecular target: T1, hpol θ (Homo sapiens, UniProt O75417)
# T1 sequence (O75417 1792-2590): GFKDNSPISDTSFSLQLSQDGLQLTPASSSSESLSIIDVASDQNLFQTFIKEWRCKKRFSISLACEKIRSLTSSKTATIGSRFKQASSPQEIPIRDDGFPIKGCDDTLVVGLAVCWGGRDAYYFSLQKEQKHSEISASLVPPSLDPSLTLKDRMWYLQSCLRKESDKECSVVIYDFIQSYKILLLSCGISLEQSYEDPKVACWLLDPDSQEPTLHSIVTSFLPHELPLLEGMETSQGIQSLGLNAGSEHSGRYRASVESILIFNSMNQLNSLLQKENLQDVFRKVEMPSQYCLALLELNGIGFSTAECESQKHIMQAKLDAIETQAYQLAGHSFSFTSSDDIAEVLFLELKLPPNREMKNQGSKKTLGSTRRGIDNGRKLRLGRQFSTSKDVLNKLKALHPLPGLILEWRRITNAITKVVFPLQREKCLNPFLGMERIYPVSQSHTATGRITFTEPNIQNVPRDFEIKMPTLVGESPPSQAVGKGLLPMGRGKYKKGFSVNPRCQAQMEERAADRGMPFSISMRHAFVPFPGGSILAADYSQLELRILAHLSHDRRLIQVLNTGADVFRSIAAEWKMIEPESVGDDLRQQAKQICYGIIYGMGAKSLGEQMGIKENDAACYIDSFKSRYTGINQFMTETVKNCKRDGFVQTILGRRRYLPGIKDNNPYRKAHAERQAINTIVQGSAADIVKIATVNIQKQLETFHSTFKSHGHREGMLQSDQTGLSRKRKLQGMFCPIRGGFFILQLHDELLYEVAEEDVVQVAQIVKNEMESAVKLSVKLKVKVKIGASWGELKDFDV
# Test: Fluorescence-based pol activity assay, hpol θ
# Type: biochemical
# Conditions: 20 μM PNR-7-02; mean (±SD)
smiles,measurement,value
"O=C1NC(=S)NC(=O)C1=Cc1cn(Cc2ccc3ccccc3c2)c2ccc(Cl)cc12 [PNR-7-02, 5-((5-chloro-1-(naphthalen-2-ylmethyl)-1H-indol-3-yl)methylene)-2-thioxodihydropyrimidine-4,6-(1H,5H)-dione]","Pol activity relative to DMSO control, hpol θ",86 (±1) %
